US11738019B2, “Substituted heterocycles as antiviral agents” (ENANTA PHARMACEUTICALS, INC., priority 2019, dated 2023)

How the values were obtained:
HBV (2.2.15 cells) = test: HBV viral product reduction in 2.2.15 cells (qPCR / HBsAg or HBeAg ELISA); assay type: cell-based; settings: Hepatitis B virus, 120 h, day 5 post treatment, concentration reducing viral product accumulation in cell lysates or supernatants by 50% relative to no drug controls
Description: 2.2.15 cells are passaged upon attaining confluency in DMEM/F12 media in the presence of 10% FBS, Penn/Strep, and 250 ug/mL G418. Novel compounds are 5 fold serially diluted in DMSO and added to 96 well plates containing 35,000 cells/well at a 1:200 dilution so that the final concentration of DMSO is 0.5%. On day 5, post treatment cell lysates and supernatants are harvested for analysis.
Cells are lysed using Agilent Sidestep Lysis buffer, diluted 1:100 and quantified via quantitative real time PCR. Commercially available ELISA kits are used to quantitate the viral proteins HBsAg (Alpco) or HBeAg (US Biological) by following the manufacturer's recommended protocol after diluting samples to match the linear range of their respective assays. Irrespective of readout, compound concentrations that reduce viral product accumulation in the cell lysates or supernatants by 50% relative to no drug controls (EC50) are reported; EC50 ranges are as follows: A<0.1 μM; B 0.1-1 μM; C>1 μM.

[1] = compound induced cellular toxicity in HepG2 cells (ATPlite 1Step); assay type: cell-based; settings: human, three days, concentration reducing total ATP levels by 50% relative to no drug controls
Description: At day 3, post seeding cells are treated with ATPlite 1Step according to the manufacturer's instructions.

| Structure (SMILES) | EC50 (HBV (2.2.15 cells)) [nM] | CC50 at 3 days [1] [µM] |
| --- | --- | --- |
| CC(C)(C)[C@@H]1Cc2c(cc(N3CCC(F)(F)C3)c3occc23)-c2cc(=O)c(C(=O)O)cn21 [Example 20, (S)-5-(tert-butyl)-12-(3,3-difluoropyrrolidin-1-yl)-9-oxo-4,9-dihydro-5H-furo[3,2-f]pyrido[2,1-a]isoquinoline-8-carboxylic acid] | 100 to 1000 | – |
| CC(C)(C)[C@@H]1Cc2c(cc(-c3ccsc3)c3occc23)-c2cc(=O)c(C(=O)O)cn21 [Example 25, (S)-5-(tert-butyl)-9-oxo-12-(thiophen-3-yl)-4,9-dihydro-5H-furo[3,2-f]pyrido[2,1-a]isoquinoline-8-carboxylic acid] | > 1000 | – |
| CC(C)(C)[C@@H]1Cc2c(cc(-c3ccsc3)c3ccoc23)-c2cc(=O)c(C(=O)O)cn21 [Example 7, (S)-5-(tert-butyl)-9-oxo-12-(thiophen-3-yl)-4,9-dihydro-5H-furo[2,3-f]pyrido[2,1-a]isoquinoline-8-carboxylic acid] | < 100 | 10 to 25 |
| Cn1ccc(-c2cc3c(c4ccoc24)C[C@@H](C(C)(C)C)n2cc(C(=O)O)c(=O)cc2-3)n1 [Example 23, (S)-5-(tert-butyl)-12-(1-methyl-1H-pyrazol-3-yl)-9-oxo-4,9-dihydro-5H-furo[3,2-f]pyrido[2,1-a]isoquinoline-8-carboxylic acid] | > 1000 | – |
| Cn1ccc(-c2cc3c(c4occc24)C[C@@H](C(C)(C)C)n2cc(C(=O)O)c(=O)cc2-3)n1 [Example 16, (S)-5-(tert-butyl)-12-(1-methyl-1H-pyrazol-3-yl)-9-oxo-4,9-dihydro-5H-furo[2,3-f]pyrido[2,1-a]isoquinoline-8-carboxylic acid] | < 100 | 10 to 25 |
| CC(C)(C)[C@@H]1Cc2c(cc(-c3cnco3)c3ccoc23)-c2cc(=O)c(C(=O)O)cn21 [Example 12, (S)-5-(tert-butyl)-12-(oxazol-5-yl)-9-oxo-4,9-dihydro-5H-furo[2,3-f]pyrido[2,1-a]isoquinoline-8-carboxylic acid] | < 100 | > 25 |
| CC(C)(C)[C@@H]1Cc2c(cc(-c3cnsc3)c3ccoc23)-c2cc(=O)c(C(=O)O)cn21 [Example 11, (S)-5-(tert-butyl)-12-(isothiazol-4-yl)-9-oxo-4,9-dihydro-5H-furo[2,3-f]pyrido[2,1-a]isoquinoline-8-carboxylic acid] | < 100 | > 25 |
| CC(C)(C)[C@@H]1Cc2c(cc(-c3ccn[nH]3)c3ccoc23)-c2cc(=O)c(C(=O)O)cn21 [Example 6, (S)-5-(tert-butyl)-9-oxo-12-(1H-pyrazol-5-yl)-4,9-dihydro-5H-furo[2,3-f]pyrido[2,1-a]isoquinoline-8-carboxylic acid] | < 100 | 10 to 25 |
| CC(C)(C)[C@@H]1Cc2c(cc(Cl)c3ccoc23)-c2cc(=O)c(C(=O)O)cn21 [Example 2, (S)-5-(tert-butyl)-12-chloro-9-oxo-4,9-dihydro-5H-furo[2,3-f]pyrido[2,1-a]isoquinoline-8-carboxylic acid] | < 100 | > 25 |
| CC(C)(C)[C@@H]1Cc2c(cc(-c3cn[nH]c3)c3ccoc23)-c2cc(=O)c(C(=O)O)cn21 [Example 9, (S)-5-(tert-butyl)-9-oxo-12-(1H-pyrazol-4-yl)-4,9-dihydro-5H-furo[2,3-f]pyrido[2,1-a]isoquinoline-8-carboxylic acid] | < 100 | > 25 |
| CC(C)(C)[C@@H]1Cc2c(cc(-c3ccco3)c3ccoc23)-c2cc(=O)c(C(=O)O)cn21 [Example 8, (S)-5-(tert-butyl)-12-(furan-2-yl)-9-oxo-4,9-dihydro-5H-furo[2,3-f]pyrido[2,1-a]isoquinoline-8-carboxylic acid] | < 100 | > 25 |
| CC(C)(C)[C@@H]1Cc2c(cc(N3CCCC3)c3ccoc23)-c2cc(=O)c(C(=O)O)cn21 [Example 18, (S)-5-(tert-butyl)-9-oxo-12-(pyrrolidin-1-yl)-4,9-dihydro-5H-furo[2,3-f]pyrido[2,1-a]isoquinoline-8-carboxylic acid] | < 100 | > 25 |
| CC(C)(C)[C@@H]1Cc2c(cc(N3CCCC3)c3occc23)-c2cc(=O)c(C(=O)O)cn21 [Example 21, (S)-5-(tert-butyl)-9-oxo-12-(pyrrolidin-1-yl)-4,9-dihydro-5H-furo[3,2-f]pyrido[2,1-a]isoquinoline-8-carboxylic acid] | 100 to 1000 | – |
| Cn1nccc1-c1cc2c(c3ccoc13)C[C@@H](C(C)(C)C)n1cc(C(=O)O)c(=O)cc1-2 [Example 4, (S)-5-(tert-butyl)-12-(1-methyl-1H-pyrazol-5-yl)-9-oxo-4,9-dihydro-5H-furo[3,2-f]pyrido[2,1-a]isoquinoline-8-carboxylic acid] | < 100 | – |
| CC(C)(C)[C@@H]1Cc2c(cc(-c3ccco3)c3occc23)-c2cc(=O)c(C(=O)O)cn21 [Example 26, (S)-5-(tert-butyl)-12-(furan-2-yl)-9-oxo-4,9-dihydro-5H-furo[3,2-f]pyrido[2,1-a]isoquinoline-8-carboxylic acid] | > 1000 | – |
| Cn1nccc1-c1cc2c(c3occc13)C[C@@H](C(C)(C)C)n1cc(C(=O)O)c(=O)cc1-2 [Example 14, (S)-5-(tert-butyl)-12-(1-methyl-1H-pyrazol-5-yl)-9-oxo-4,9-dihydro-5H-furo[2,3-f]pyrido[2,1-a]isoquinoline-8-carboxylic acid] | < 100 | > 25 |
| CC(C)(C)[C@@H]1Cc2c(cc(-c3cnsc3)c3occc23)-c2cc(=O)c(C(=O)O)cn21 [Example 29, (S)-5-(tert-butyl)-12-(isothiazol-4-yl)-9-oxo-4,9-dihydro-5H-furo[3,2-f]pyrido[2,1-a]isoquinoline-8-carboxylic acid] | > 1000 | – |
| CC(C)(C)[C@@H]1Cc2c(cc(-c3ccoc3)c3occc23)-c2cc(=O)c(C(=O)O)cn21 [Example 13, (S)-5-(tert-butyl)-12-(furan-3-yl)-9-oxo-4,9-dihydro-5H-furo[3,2-f]pyrido[2,1-a]isoquinoline-8-carboxylic acid] | < 100 | 10 to 25 |
| CC(C)(C)[C@@H]1Cc2c(cc(-c3cscn3)c3ccoc23)-c2cc(=O)c(C(=O)O)cn21 [Example 17, (S)-5-(tert-butyl)-9-oxo-12-(thiazol-4-yl)-4,9-dihydro-5H-furo[2,3-f]pyrido[2,1-a]isoquinoline-8-carboxylic acid] | < 100 | > 25 |
| CC(C)(C)[C@@H]1Cc2c(cc(-c3ccn[nH]3)c3occc23)-c2cc(=O)c(C(=O)O)cn21 [Example 28, (S)-5-(tert-butyl)-9-oxo-12-(1H-pyrazol-5-yl)-4,9-dihydro-5H-furo[3,2-f]pyrido[2,1-a]isoquinoline-8-carboxylic acid] | > 1000 | – |
| CC(C)(C)[C@@H]1Cc2c(cc(-c3cccs3)c3ccoc23)-c2cc(=O)c(C(=O)O)cn21 [Example 10, (S)-5-(tert-butyl)-9-oxo-12-(thiophen-2-yl)-4,9-dihydro-5H-furo[2,3-f]pyrido[2,1-a]isoquinoline-8-carboxylic acid] | < 100 | 10 to 25 |
| CC(C)(C)[C@@H]1Cc2c(ccc3occc23)-c2cc(=O)c(C(=O)O)cn21 [Example 31, (S)-5-(tert-butyl)-9-oxo-4,9-dihydro-11-furo[3,2-f]pyrido[2,1-a]isoquinoline-8-carboxylic acid] | > 1000 | – |
| Cn1cc(-c2cc3c(c4occc24)C[C@@H](C(C)(C)C)n2cc(C(=O)O)c(=O)cc2-3)cn1 [Example 15, (S)-5-(tert-butyl)-12-(1-methyl-1H-pyrazol-4-yl)-9-oxo-4,9-dihydro-5H-furo[2,3-f]pyrido[2,1-a]isoquinoline-8-carboxylic acid] | < 100 | > 25 |
| Cn1cc(-c2cc3c(c4ccoc24)C[C@@H](C(C)(C)C)n2cc(C(=O)O)c(=O)cc2-3)cn1 [Example 5, (S)-5-(tert-butyl)-12-(1-methyl-1H-pyrazol-4-yl)-9-oxo-4,9-dihydro-5H-furo[3,2-f]pyrido[2,1-a]isoquinoline-8-carboxylic acid] | > 1000 | > 25 |
| CC(C)(C)[C@@H]1Cc2c(cc(-c3cscn3)c3occc23)-c2cc(=O)c(C(=O)O)cn21 [Example 30, (S)-5-(tert-butyl)-9-oxo-12-(thiazol-4-yl)-4,9-dihydro-5H-furo[3,2-f]pyrido[2,1-a]isoquinoline-8-carboxylic acid] | > 1000 | – |
| CC(C)(C)[C@@H]1Cc2c(cc(-c3cn[nH]c3)c3occc23)-c2cc(=O)c(C(=O)O)cn21 [Example 27, (S)-5-(tert-butyl)-9-oxo-12-(1H-pyrazol-4-yl)-4,9-dihydro-5H-furo[3,2-f]pyrido[2,1-a]isoquinoline-8-carboxylic acid] | > 1000 | – |
| CC(C)(C)[C@@H]1Cc2c(cc(-c3cccs3)c3occc23)-c2cc(=O)c(C(=O)O)cn21 [Example 24, (S)-5-(tert-butyl)-9-oxo-12-(thiophen-2-yl)-4,9-dihydro-5H-furo[3,2-f]pyrido[2,1-a]isoquinoline-8-carboxylic acid] | > 1000 | – |
| CC(C)(C)[C@@H]1Cc2c(cc(-c3cnco3)c3occc23)-c2cc(=O)c(C(=O)O)cn21 [Example 22, (S)-5-(tert-butyl)-12-(oxazol-5-yl)-9-oxo-4,9-dihydro-5H-furo[3,2-f]pyrido[2,1-a]isoquinoline-8-carboxylic acid] | 100 to 1000 | – |
